Data reported in the NIST ThermoML archive (doi:10.1016/j.jct.2013.01.004).

Legend:
[1] = 101.33 kPa, Crystal, Thin-film microcalorimeter
[2] = molar heat capacity at constant pressure; settings: 101.33 kPa, Crystal, Thin-film microcalorimeter

[O-2].[Zn+2] [zinc(II) oxide]
Settings	molar entropy, [1] [J/K/mol]	molar heat capacity at constant pressure, [2] [J/K/mol]
1 K	2e-05	6e-05
1.906 K	–	0.0004
2 K	0.0001	0.0004
2.105 K	–	0.0005
2.329 K	–	0.0007
2.579 K	–	0.0009
2.856 K	–	0.0013
3 K	0.0005	0.0015
3.169 K	–	0.0018
3.509 K	–	0.0024
3.893 K	–	0.0033
4 K	0.0012	0.0036
4.319 K	–	0.0045
4.794 K	–	0.0062
5 K	0.0023	0.007
5.322 K	–	0.0085
5.907 K	–	0.0115
6 K	0.004	0.0121
6.557 K	–	0.0158
7 K	0.0064	0.0193
7.279 K	–	0.0217
8 K	0.0096	0.0288
8.084 K	–	0.0296
8.978 K	–	0.0409
9 K	0.0136	0.0414
9.969 K	–	0.0573
10 K	0.0188	0.0577
11 K	0.0252	0.0785
11.07 K	–	0.0803
12 K	0.0332	0.1048
12.3 K	–	0.1145
13 K	0.0428	0.1378
13.64 K	–	0.1629
14 K	0.0545	0.1786
15 K	0.0684	0.2282
15.18 K	–	0.237
16 K	0.085	0.2876
16.82 K	–	0.3415
17 K	0.1045	0.3576
18 K	0.1272	0.439
18.66 K	–	0.5019
19 K	0.1533	0.5323
20 K	0.1833	0.6378
20.68 K	–	0.718
22.98 K	–	1.028
25 K	0.3964	1.349
25.55 K	–	1.448
28.39 K	–	1.989
30 K	0.7254	2.327
31.54 K	–	2.658
35 K	1.169	3.48
35.05 K	–	3.48
38.93 K	–	4.451
40 K	1.714	4.713
43.22 K	–	5.533
45 K	2.341	5.965
48.01 K	–	6.726
50 K	3.035	7.218
53.32 K	–	8.042
55 K	3.781	8.463
59.21 K	–	9.463
60 K	4.569	9.606
65 K	5.382	10.71
65.75 K	–	10.92
70 K	6.216	11.8
73.03 K	–	12.44
75 K	7.065	12.85
80 K	7.928	13.87
81.09 K	–	14.11
85 K	8.798	14.86
90 K	9.675	15.83
90.06 K	–	15.91
95 K	10.56	16.77
99.87 K	–	17.65
100 K	11.44	17.69
110 K	13.21	19.46
110.46 K	–	19.47
120 K	14.98	21.16
120.49 K	–	21.17
130 K	16.73	22.78
130.48 K	–	22.84
140 K	18.48	24.34
140.63 K	–	24.44
150 K	20.21	25.82
150.79 K	–	25.91
160 K	21.92	27.24
160.85 K	–	27.33
170 K	23.61	28.58
170.76 K	–	28.78
180 K	25.28	29.85
181.03 K	–	30.05
190 K	26.93	31.05
191.32 K	–	31.22
200 K	28.55	32.19
201.42 K	–	32.29
210 K	30.15	33.26
211.59 K	–	33.41
220 K	31.72	34.27
221.8 K	–	34.44
230 K	33.26	35.22
232 K	–	35.5
240 K	34.78	36.12
242.17 K	–	36.29
250 K	36.27	36.96
252.15 K	–	37.15
260 K	37.74	37.76
262.28 K	–	37.93
270 K	39.18	38.5
272.28 K	–	38.59
273.15 K	39.63	38.73
280 K	40.59	39.2
282.48 K	–	39.3
290 K	41.98	39.86
292.54 K	–	39.86
298.15 K	43.09	40.36
300 K	43.34	40.48
302.58 K	–	40.86
